In series [1] the test system is chloroquine-resistant strains of Plasmodium falciparum. The conditions noted are these: in vivo; cited from earlier work.
The test system of series [2] is P. Berghei K173 N-strain. Briefly: blood schizontocidal action, 4-day test according to Peters. Type of series: in vivo, P. Berghei in mice. The conditions noted are these: component alone, oral, mice, mean of three experiments. The protocol:
The synergism between the components benflumetol and artemether is determined according to the method of Peters: Am. Trop. Med. Parasitol Vol. 62, pg. 488-492 (1968).
Blood schizintocidal action of artemether (A) and benflumetol (B) admimistered orally in varying proportions to mice infected with P. Berghei K173 N-strain in "4-day test" according to Peters (Mean values of three experiments)

Series [3] concerns protozoa. The experiment in a line: rate of killing protozoa in vivo in mice. The conditions noted are these: 20× ED90 intragastrically. As for the experimental part: The rate of killing protozoa was determined in-vivo. When the protozoa concentration in the blood of mice increased to high density, a multiple dose equivalent, i.e. 20× ED90 was given intragastrically. The rate of decrease of protozoae in blood was observed uninterruptedly after administration.

The subject of series [4] is pernicious malaria protozoae. The experiment in a line: clinical therapeutic effect of individual components compared to combination. Format: in vivo, patients (human). The conditions noted are these: oral, 3 days and 4 doses; for time for disappearance of protozoae: average; for rate of decrease in protozoae at 24 hours: 20 patients per group. An excerpt: Determination of therapeutic effect of individual components as compared to synergistic combination: Two groups of patients were selected for oral administration and the 3 days and 4 doses treatment scheme. There were 20 patients with pernicious malaria in each group. The therapeutic effect of the combination and artemether and benflumetol singly were compared separately. The doses of both drugs in individual administration were about the same as in the complex prescription. The parameters determined were: 1) the rate for decrease of protozoa at 24 h post administrationem; 2) average time for disappearance of protozoae; 3) average time for fever subsidence; and 4) cure rate at the 28th day.

The nature of series [5]: toxicity and tolerability of benflumetol (general statement). The source says:
The dose of the active component benflumetol (I) as contained in the pharmaceutical composition may vary within wide limits and depends on the condition of the patient and the time period elapsed after the outbreak of the disease.

Consider `C[C@@H]1CC[C@H]2[C@@H](C)C(=O)O[C@@H]3O[C@@]4(C)CC[C@@H]1[C@]32OO4` [Artemisinine], for which, in series [1], the “activity against chloroquine-resistant strains of Plasmodium falciparum in man” value is reported as “active against chloroquine-resistant strains of Plasmodium falciparum in man”.
`CO[C@H]1O[C@@H]2O[C@@]3(C)CC[C@H]4[C@H](C)CC[C@@H]([C@H]1C)[C@@]24OO3` [artemether]: in series [2], the “Effective dose of first component ED50” value is given as 2.00 mg/kg/day and the “Effective dose of first component ED90” value is 5.30 mg/kg/day. In series [3] (before their number increased again), the killing of protozoae entry was “could not kill protozoae by more than 90% before their number increased again”. In series [4], the “time for disappearance of protozoae” value is 38.7 h, the 28-day cure rate came out at 45%, the “average time for fever subsidence” value came out at 19.7 h and the “rate of decrease in protozoae at 24 hours” value is 95.1%.
Take `CCCCN(CCCC)CC(O)c1cc(Cl)cc2c1-c1ccc(Cl)cc1C2=Cc1ccc(Cl)cc1` (centres unmarked) [benflumetol]: in series [2], the “Effective dose of first component ED50” value was 1.30 mg/kg/day and the “Effective dose of first component ED90” value is listed as 2.70 mg/kg/day. Besides, the “timespan required for 90% decrease of the protozoae” value in series [3] came out at 64.3 h. In series [4], the “time for disappearance of protozoae” value was determined as 68.4 h, the 28-day cure rate amounted to 65%, the “average time for fever subsidence” value was determined as 40 h and the “rate of decrease in protozoae at 24 hours” value is reported as 74.5%. In series [5], the tolerability entry is recorded as “high tolerability” and the toxicity entry is listed as “low toxicity”.

These data come from US5677331A, “Antimalarial compositions” (priority 1990, dated 1997).
